From ChEMBL document CHEMBL1201862, “PubChem BioAssay data set” (2004)
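Grown in 96-well plates, cells were treated for 48 hours with each compound at five concentrations. Insufficient inhibition: endpoint recorded as highest concentration tested. GI50 = concentration required for 50% inhibition of growth.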 The source made the active and inactive calls. Rule as the data show it: active = GI50 up to about 1.1 µM and inactive = higher.

Columns and labels:
Test in all cases: NCI tumour cell line growth inhibition, 48 h
[1] = tested on: SF-539
[2] = tested on: UO-31
[3] = tested on: HOP-62
[4] = tested on: SK-MEL-28
[5] = tested on: MOLT-4
[6] = tested on: M14
[7] = tested on: OVCAR-5
[8] = tested on: 786-0
[9] = tested on: SNB-19
[10] = tested on: OVCAR-8
[11] = tested on: SK-OV-3
[12] = tested on: Malme-3M
[13] = tested on: RXF 393
[14] = tested on: NCI-H23
[15] = tested on: HT-29
[16] = tested on: RPMI-8226

Measured: GI50

CCOC(=O)c1sc2c(sc(=O)n2-c2ccccc2)c1O
inactive: [1] > 100 µM | [2] > 100 µM | [3] > 100 µM | [4] > 100 µM | [5] > 100 µM | [6] > 100 µM | [7] > 100 µM | [8] > 100 µM | [9] > 100 µM | [10] > 100 µM | [11] > 100 µM | [12] > 100 µM | [13] > 100 µM | [14] 65.8 µM | [15] > 100 µM

c1cnc2c(c1)-n1cccc1C1(CCCCC1)NN2
inactive: [1] > 100 µM | [2] 26.9 µM | [3] > 100 µM | [4] > 100 µM | [5] 24.5 µM | [6] > 100 µM | [7] > 100 µM | [8] > 100 µM | [9] > 100 µM | [10] > 100 µM | [12] 62.1 µM | [16] 47.9 µM | [15] > 100 µM

O=c1oc(=O)c2oc3ccccc3oc1=2
inactive: [1] > 100 µM | [2] > 100 µM | [3] > 100 µM | [4] > 100 µM | [5] > 100 µM | [6] > 100 µM | [7] > 100 µM | [8] > 100 µM | [9] > 100 µM | [10] > 100 µM | [11] > 100 µM | [12] > 100 µM | [13] > 100 µM | [14] > 100 µM | [15] > 100 µM

OCC(O)COc1c(Cl)ccc(Cl)c1Cl (configuration not stated)
inactive: [1] > 100 µM | [2] > 100 µM | [3] > 100 µM | [4] > 100 µM | [5] > 100 µM | [6] > 100 µM | [7] > 100 µM | [8] > 100 µM | [9] > 100 µM | [10] > 100 µM | [11] > 100 µM | [12] > 100 µM | [13] > 100 µM | [14] > 100 µM | [15] > 100 µM

Cc1ccc(S(=O)(=O)c2c(N)n(CCN(C)C)c3nc4ccccc4nc23)cc1
inactive: [1] > 100 µM | [2] > 100 µM | [4] > 100 µM | [5] > 100 µM | [6] > 100 µM | [7] > 100 µM | [8] > 100 µM | [9] > 100 µM | [10] > 100 µM | [11] > 100 µM | [12] > 100 µM | [14] > 100 µM | [16] > 100 µM | [15] > 100 µM
